{"source": "patent US6153405A", "about": "“Lantibiotic mutants and chimeras of enhanced stability and activity, leader sequences therefor, genes encoding the same, and methods of producing and using the same” (The University of Maryland, priority 1998, dated 2000)", "key": {"[1]": {"test_system": "Bacillus cereus spores and/or vegetative cells", "details": "cited from earlier work"}, "B. cereus T spores [2]": {"test_system": "B. cereus T spores", "test": "inhibition zone (halo) assay", "assay_type": "cell-based, Bacillus cereus", "details": "HPLC fractions spotted on agar, sprayed with B. cereus T spores", "method": "Biological activity was measured using an inhibition zone (halo) assay (ref. 21 and U.S. application Ser. No. 07/981,525 now U.S. Pat. No. 5,516,682) and a liquid culture assay (26). HPLC fractions were tested for activity by spotting 15 μL onto an agar plate (modified Medium A), incubating at 37° C. for 15 min., spraying with B. cereus T spores and incubating at 37° C. for 16 hr. Positive inhibition is defined as and was determined by a clear zone containing spores that were inhibited during outgrowth surrounded by an opaque lawn of cells derived from the spores that had become vegetative."}, "[3]": {"test": "stability of dehydro residues in aqueous solution by 1H NMR", "assay_type": "physicochemical", "details": "D2O, pH 6.0, dark, room temperature", "method": "Samples for ^1 H NMR spectral analysis were dissolved in deuterated water (99.96 atom % D, Aldrich Chemical Co.), lyophilized (repeated twice) to exchange protons and dissolved in D2 O to a final concentration of 2-3 mg/mL. ^1 H NMR spectra were obtained using a Bruker AMX-500 spectrometer interfaced to an Aspect 3000 computer. Spectra were obtained at a constant temperature of 295 K, using selective solvent suppression. Data were processed using UXNMR software. Mass spectral analysis was performed by PeptidoGenic Research & Co. (Livermore, Calif.) on a Sciex API I Electrospray Mass Spectrometer which has an analysis range of over 200,000 Da with +/-0.01% accuracy, on 5 μL samples at a concentration of about 5 pmol/μL. The reported masses are those calculated as the most probable values based on the different m/z forms.\nA 3 mg amount of the Nis1-11 -Sub12-32 chimera (consisting of a mixture of the Early Peak and Late Peak as defined in FIGS. 4 and 5) was dissolved in D2 O at a pH of 6.0, placed in an NMR tube (which was then closed), and incubated in aqueous solution in the dark at room temperature for 2.5 months."}, "[4]": {"test_system": "B. cereus vegetative cells", "test": "liquid assay of vegetative cells (lysis by turbidity)", "assay_type": "cell-based, Bacillus cereus", "details": "for inhibition of vegetative cells (inhibitory concentration): amount of peptide required to reduce turbidity by 50%", "method": "The activity of the chimeric Nis1-11 -Sub12-32 peptide towards inhibiting B. cereus vegetative cells was also determined. Heat-shocked B. cereus T spores (150 micrograms) were added to 1% tryptone (Difco)-0.1 M Tris-phosphate buffer (2 ml) at pH 6.8. The mixture was incubated for 2 hours at 37° C. in a rotating drum shaker, whereupon all of the spores were in the vegetative state. The chimeric peptide was then added, and incubation was continued for one additional hour. Cell lysis was monitored by turbity (measured in Klett units), and the integrity of the cell was determined by phase-contrast microscopy. Relative inhibitory effectiveness was measured as the amount of inhibitory peptide required to reduce the turbity by 50%."}, "B. cereus T spores [5]": {"test_system": "B. cereus T spores", "test": "liquid culture assay of spore outgrowth", "assay_type": "cell-based, Bacillus cereus", "details": "for inhibition of spore outgrowth (inhibitory concentration): B. cereus T spores, 90 min incubation", "method": "In the liquid culture assay, various concentrations of peptide were added to a suspension of B. cereus T spores in modified medium A and incubated in a rotating drum shaker at 30° C. for 90 min. The inhibitory effects were evaluated using phase contrast microscopy and a Klett-Summerson calorimeter. After incubation, cells were viewed by phase-contrast microscopy to determine their stage of outgrowth. Those cells in early stages of outgrowth (phase-dark and swollen, but only slightly elongated) were considered inhibited. Those cells that were fully elongated and/or divided were considered to be not inhibited. The inhibitory concentration is the concentration of peptide which arrests a majority of the population of spores at the stage of early outgrowth after the 90-min incubation period. Further, spore germination and outgrowth are accompanied by known changes in the optical density at 650 nm. Thus, the stage of outgrowth can be monitored and the inhibitory concentration can be confirmed using a Klett-Summerson calorimeter. Definitive determinations of the inhibitory concentration of peptide advantageously employ both phase-contrast microscopy and measurement of the optical density at 650 nm."}, "[6]": {"details": "inferred through nisin from previous measurements (21, 26, 31)"}}, "note": "Read-outs that look alike come from different tables or passages of the source. *1 amine or outer side, *2 acyl side, *3 side chain or, on linkers, in order; H or OH if unused. Where no end group is shown, it is not given here. Suc = O=C(CCC(=O)[*:2])[*:1]", "data": [{"substance": "NL --Nis1-34: complete nisin prepeptide: nisin leader region and nisin structural region (MSTKDFNLDLVSVSKKDSGASPRITSISLCTPGCKTGALMGCNMKTATCHCSIHVSK; full-length; UniProt P13068 1-57, looked up)", "values": [{"measurement": "Secreted peptide is active", "setting": "[1]; prepeptide expressed in L. lactis 11454, ref. c (17)", "value": "yes"}]}, {"substance": "Nis1-11 -Sub12-32: chimeric lantibiotic: nisin residues 1-11 and subtilin residues 12-32 (SEQ ID NO:5), processed by B. subtilis 168", "values": [{"measurement": "antimicrobial activity in halo assay", "setting": "B. cereus T spores [2]", "value": "possessed antimicrobial activity"}, {"measurement": "antimicrobial activity in halo assay", "setting": "B. cereus T spores [2]; listed as Early Peak", "value": "antimicrobial activity is associated mainly with the Early Peak"}, {"measurement": "change in the NMR resonances of the dehydro residues", "setting": "[3]; 72-day incubation, mixture of Early Peak and Late Peak", "value": "no significant change"}, {"measurement": "half-life of the Dha5 residue", "setting": "[3]; NMR at 0, 34 and 72 days", "value": "so long that it cannot be estimated from the 72-day time-point"}, {"measurement": "activity against vegetative growth", "setting": "[4]", "value": "active"}, {"measurement": "inhibition of vegetative cells (inhibitory concentration)", "setting": "[4]", "value": "about 2 μg/ml"}, {"measurement": "activity against spore outgrowth", "setting": "B. cereus T spores [5]", "value": "active"}, {"measurement": "inhibition of spore outgrowth (inhibitory concentration)", "setting": "B. cereus T spores [5]", "value": "about 0.2 μg/ml"}, {"measurement": "activity relative to E4I-subtilin (fold more active)", "setting": "B. cereus T spores [5]; [6]", "value": "about 2 fold"}, {"measurement": "activity relative to natural subtilin (times more active)", "setting": "B. cereus T spores [5]; [6]", "value": "6-8 times"}]}, {"substance": "SL --S1-32: prepeptide: subtilin leader sequence and subtilin structural region (MSKFDDFDLDVVKVSKQDSKITPQWKSESLCTPGCVTGALQTCFLQTLTCNCKISK; full-length; UniProt P10946 1-56, looked up)", "values": [{"measurement": "Secreted peptide is active", "setting": "[1]; prepeptide expressed in B. subtilis 168, ref. b (21)", "value": "yes"}, {"measurement": "Secreted peptide is active", "setting": "[1]; prepeptide expressed in B. subtilis 6633", "value": "yes"}]}, {"substance": "nisin [reference compound]", "values": [{"measurement": "inhibition of vegetative cells (inhibitory concentration)", "setting": "[4]", "value": "about 2 μg/ml"}, {"measurement": "inhibition of spore outgrowth (inhibitory concentration)", "setting": "B. cereus T spores [5]", "value": "about 0.2 μg/ml"}]}, {"substance": "succinylated subtilin: subtilin succinylated at its N-terminus, accumulates in late stationary phase of B. subtilis 6633 (Suc-WKSESLCTPGCVTGALQTCFLQTLTCNCKISK; cysteine pairing not given here; also: lantibiotic (post-translational modifications not placed); UniProt P10946 25-56, looked up)", "values": [{"measurement": "activity compared with normal unsuccinylated subtilin", "setting": "[1]; succinylated at N-terminus", "value": "significantly less active"}]}]}
